One experiment relates to MM.1R cells. In words: Anti-proliferation assay (ATPLite, 72 h), MM.1R. Type of experiment: cell-based. On the technique in general: Cellular ATP, detected with luciferase, serves as a proxy for viable cell number.
The next experiment relates to RPMI-8226 cells. In words: Anti-proliferation assay (ATPLite, 72 h), RPMI-8226. Particulars: for synergy score: RPMI-8226. In kind it is cell-based.
Experiment [1] deals with MM.1S cells. In words: Anti-proliferation assay (ATPLite, 72 h), MM.1S. Particulars: for Synergy score with dexamethasone, MM.1S: combination with dexamethasone, Loewe-based Synergy Score; for synergy score: MM.1S.
The subject of a further experiment is H929 cells. In words: Anti-proliferation assay (ATPLite, 72 h), H929. In kind it is cell-based. Particulars: for Synergy score with dexamethasone, H929: combination with dexamethasone, Loewe-based Synergy Score, 72 h; for synergy score: H929.
The subject of experiment [2] is MM.1S cells. The note with it: MM.1S.
Experiment [3] has as its system chronic lymphocytic leukemia (CLL) cells. In words: Apoptosis assay (Hoechst 33342 flow cytometry, 48 h) on patient CLL cells. Type of experiment: cell-based, human. Particulars: for Induction of CLL cell apoptosis: Patient #1. An excerpt: Patients with active infections or other serious medical conditions were not included in this study. Patients with white blood cell counts of less than 15,000/μl by automated analysis were excluded from this study. Whole blood was layered on Ficoll-Hystopaque (Sigma), and peripheral blood mononuclear cells (PBMC) isolated after centrification. […] One million cells were stained with anti-CD5-PE and anti-CD19-PE-Cy5 (Becton […].). The percentage of B-CLL cells was defined as the percentage of cells doubly expressing CD5 and CD19, as determined by flow cytometry. […] Compound master plates were diluted 1:50 into complete media to create working compound dilutions. Compound crosses were then created by diluting two working dilution plates 1:10 into each plate of cells. […] Hoechst 33342 (Molecular Probes, Eugene Oreg.) at a final concentration of 0.25 μg/mL was added to each well and the cells incubated at 37° C. for an additional ten minutes before being placed on ice until analysis. Plates were then analyzed on a LSR-II flow cytometer (Becton Dickenson, Franklin Lakes, N.J.) equipped with the High Throughput Sampling (HTS) option in high throughput mode. […] The apoptotic fraction was calculated using FlowJo software (Tree Star Inc., Ashland, Oreg.) after excluding debris by a FSC/SSC gate and subsequently gating for cells that accumulate the Hoechst dye.
For orientation: Flow cytometry measures light scatter and fluorescence of single cells or particles in a stream.

Setting [4] is: in combination with HE-NECA, MM.1R.
Where [5] appears, read: combination with dexamethasone, Loewe-based Synergy Score, 72 h.
Where [6] appears, read: Homo sapiens, MM1.S, read-out: percent inhibition of cell proliferation.
Setting [7] is: in combination with ADAC, MM.1R.
The mark [8] stands for this setting: Homo sapiens, MM1.S, 72 h, read-out: percent inhibition of cell proliferation.

The text below walks through data of US20090053168A1, “TREATMENTS OF B-CELL PROLIFERATIVE DISORDERS” (priority 2007, published 2009).

Counter-ions that a name gives are not always drawn. Like-named read-outs stand apart in the source and are kept apart here.

Turning to `O=c1cc(N2CCOCC2)oc2c(-c3ccccc3)cccc12` [LY 294002], in the experiment with MM.1R cells (setting [4]), the “synergy score” value came out at 0.83.
As to `CN(C(=O)CCCOc1ccc2[nH]c(=O)ccc2c1)C1CCCCC1` [Cilostamide, N-cyclohexyl-4-((1,2-dihydro-2-oxo-6-quinolinyl)oxy)-N-methyl-butanamide], the “Synergy score with dexamethasone, RPMI-8226” value (“Synergy score … RPMI-8226” below) in the experiment with RPMI-8226 cells (setting [5]) is reported as 1.42. Besides, in the experiment with MM.1S cells [1] (setting [6]), the inhibition at 0.368 µM is 0.46%, the inhibition at 1.1 µM was determined as 2.4%, the inhibition at 3.31 µM was -2% and the inhibition at 9.93 µM turned out to be 4.2%. Moreover, the inhibition at 29.8 µM in the experiment on MM.1S cells [1] (setting [6]) came to 33%. The “Synergy score with dexamethasone, MM.1S” value in the experiment with MM.1S cells [1] (72 h) is reported as 1.34. Moreover, the “Synergy score with dexamethasone, H929” value with H929 cells worked out at 0.982.
For the molecule `CCc1c2c(nc3ccc(OC(=O)N4CCC(N5CCCCC5)CC4)cc13)-c1cc3c(c(=O)n1C2)COC(=O)[C@]3(O)CC` [Irinotecan hydrochloride], the synergy score was 3.13 in the experiment with MM.1R cells (setting [7]); 0.6972 in the experiment on MM.1R cells (setting [4]); 1.414 in the experiment on RPMI-8226 cells (in combination with ADAC); 1.227 with RPMI-8226 cells (in combination with HE-NECA); 2.576 in the experiment on MM.1S cells [1] (in combination with ADAC); 0.6406 with MM.1S cells [1] (in combination with HE-NECA). Moreover, the synergy score was 1.877 in the experiment with H929 cells (in combination with ADAC) and 0.6736 in the experiment on H929 cells (in combination with HE-NECA).
Consider `CC(=O)S[C@@H]1CC2=CC(=O)CC[C@]2(C)[C@H]2CC[C@@]3(C)[C@@H](CC[C@@]34CCC(=O)O4)[C@H]12` [Spironolactone], for which the synergy score with MM.1R cells (setting [7]) came out at 2.029; in the experiment with MM.1R cells (setting [4]), 1.151; in the experiment on RPMI-8226 cells (in combination with ADAC), 0.8213; in the experiment with RPMI-8226 cells (in combination with HE-NECA), 0.6876; in the experiment with MM.1S cells [1] (in combination with ADAC), 1.444; in the experiment on MM.1S cells [1] (in combination with HE-NECA) it was 1.835. For the same molecule, the synergy score worked out at 0.6779 with H929 cells (in combination with ADAC) and 1.831 with H929 cells (in combination with HE-NECA).
Turning to `O=C1C=C2C(=CCOC2O)O1` (centres unmarked) [Patulin], the “synergy score” value in the experiment with MM.1R cells (setting [4]) is given as 1.73.
As for `Nc1ccn([C@@H]2O[C@H](CO)[C@@H](O)C2(F)F)c(=O)n1` [Gemcitibine], the synergy score with MM.1R cells (setting [7]) worked out at 1.2; in the experiment on RPMI-8226 cells (in combination with ADAC) it was 0.3; with MM.1S cells [1] (in combination with ADAC) it was 1.42; in the experiment with H929 cells (in combination with ADAC), 0.07.
With `COc1cccc2c1C(=O)c1c(O)c3c(c(O)c1C2=O)C[C@@](O)(C(=O)CO)C[C@@H]3O[C@H]1C[C@H](N)[C@@H](O)[C@H](C)O1` [Epirubicin], the synergy score came to 1.42 in the experiment on MM.1R cells (setting [7]), 1.14 in the experiment on RPMI-8226 cells (in combination with ADAC) and 0.33 with H929 cells (in combination with ADAC).
`CCCCCC[C@@H]([C@@H](C)O)n1cnc2c(N)ncnc21` (racemic) [EHNA, erythro-9-(2-hydroxy-3-nonyl)adenine]: the “Synergy score … RPMI-8226” value with RPMI-8226 cells was 1.14.
Take `O=c1[nH]c(=O)n([C@H]2C[C@H](O)[C@@H](CO)O2)cc1C(F)(F)F` [Trifluridine]: the “synergy score” value with MM.1R cells (setting [4]) amounted to 1.94.
Consider `COc1ccc(Cc2nccc3cc(OC)c(OC)cc23)cc1OC` [Papaverine, 1-[(3.4-dimethoxyphenyl)-methyl]-6,7-dimethoxyisoquinolone], for which, in the experiment with RPMI-8226 cells (setting [5]), the “Synergy score … RPMI-8226” value is 3.49. Also, the “Synergy score with dexamethasone, MM.1S” value with MM.1S cells [1] (72 h) is 2.99. For the same molecule, the “Synergy score with dexamethasone, H929” value in the experiment on H929 cells came to 3.05.
Take `C[C@H]1c2cccc(O)c2C(=O)C2=C(O)[C@]3(O)C(=O)C(C(N)=O)=C(O)[C@@H](N(C)C)[C@@H]3[C@@H](O)[C@@H]21` [Doxycycline]: the synergy score with MM.1R cells (setting [7]) is reported as 0.78; in the experiment on RPMI-8226 cells (in combination with ADAC) it was 1.17; with MM.1S cells [1] (in combination with ADAC) it was 2.22; in the experiment on H929 cells (in combination with ADAC), 2.35.
Regarding `COc1ccc(C2CNC(=O)C2)cc1OC1CCCC1` (centres unmarked) [Rolipram, 4-(3-cyclopentyloxy-4-methoxyphenyl)-2-pyrrolidone], the “Synergy score … RPMI-8226” value in the experiment with RPMI-8226 cells (setting [5]) was 1.43. The “Synergy score with dexamethasone, MM.1S” value in the experiment on MM.1S cells [1] (72 h) was determined as 0.203. The “Synergy score with dexamethasone, H929” value with H929 cells is given as 0.0927.
In the case of `CN1C[C@H](C(=O)N[C@]2(C)O[C@@]3(O)[C@@H]4CCCN4C(=O)[C@H](Cc4ccccc4)N3C2=O)C[C@@H]2c3cccc4[nH]cc(c34)C[C@H]21` [Dihydroergotamine], the “synergy score” value with MM.1R cells (setting [4]) is 2.56.
`Nc1nc2c(cnn2CCc2ccccc2)c2nc(-c3ccco3)nn12` [SCH 58261]: the “blocking of chloro-IB-MECA antiproliferative activity” value with MM.1S cells [2] (SCH 58261 78 nM, 72 hours, 2-fold dilutions of chloro-IB-MECA) is more than 50%; in the experiment with MM.1S cells [2] (antagonist concentration increased 2-fold), more than 70%.
Regarding `CCNC(=O)[C@H]1O[C@@H](n2cnc3c(N)nc(NCCc4ccc(CCC(=O)O)cc4)nc32)[C@H](O)[C@@H]1O` [CGS-21680, 2-(4-(2-carboxyethyl)phenethylamino)-5′-N-ethylcarboxamidoadenosine], the “Synergy score … RPMI-8226” value with RPMI-8226 cells (setting [5]) is recorded as 2.54. The results for the “Induction of CLL cell apoptosis” value in experiment [3] (CGS-21680 0.05 μM alone), in experiment [3] (CGS-21680 0.15 μM alone) and in experiment [3] (CGS-21680 0.45 μM alone) were 12%, 14% and 16%, respectively. Also, in experiment [3] (patient 1, 48 hours), the “apoptosis, CLL cells patient 1” value worked out at 14%. Also, in experiment [3] (patient #2, 48 hours), the “apoptosis, CLL cells patient #2” value is recorded as 9%. In addition, the “Synergy score with dexamethasone, MM.1S” value in the experiment with MM.1S cells [1] (72 h) turned out to be 4.73.
In the case of `OC[C@H]1O[C@@H](n2cnc3c(NC4CCCC4)nc(Cl)nc32)[C@H](O)[C@@H]1O` [CCPA, 2-chloro-N^6-cyclopentyladenosine], the “Synergy score … RPMI-8226” value in the experiment with RPMI-8226 cells (setting [5]) is reported as 5.04. Moreover, in the experiment with MM.1S cells [1] (setting [8]), the inhibition at 0.0625 µM was 2.4%, the inhibition at 0.187 µM is 21%, the inhibition at 0.562 µM turned out to be 15% and the inhibition at 1.69 µM was 38%. For the same molecule, in the experiment on MM.1S cells [1] (setting [8]), the inhibition at 5.06 µM worked out at 50%. Moreover, the “activity and synergy in antiproliferation assays” value in the experiment on MM.1S cells [1] (RPMI-8226, H929, MM.1S and MM.1R MM cell lines) is “active and synergistic”. Besides, the “Synergy score with dexamethasone, MM.1S” value with MM.1S cells [1] (72 h) amounted to 5.15.
On to `CCCCc1oc2ccccc2c1C(=O)c1cc(I)c(OCCN(CC)CC)c(I)c1` [Amiodarone], for which the “synergy score” value with MM.1R cells (setting [4]) is 0.67.
Take `Cn1cnc([N+](=O)[O-])c1Sc1ncnc2nc[nH]c12` [Azathioprine]: the synergy score in the experiment with MM.1R cells (setting [7]) worked out at 1.26; in the experiment on RPMI-8226 cells (in combination with ADAC), 1.63; in the experiment with MM.1S cells [1] (in combination with ADAC), 1.43; with H929 cells (in combination with ADAC) it was 1.22.
In the case of `C[C@@H]1C[C@H]2O[C@@H]2/C=C\C=C\C(=O)Cc2c(Cl)c(O)cc(O)c2C(=O)O1` [Monordon], the “synergy score” value in the experiment with MM.1R cells came to 1.7.
Regarding `CC(C)[C@]12O[C@H]1[C@@H]1O[C@]13[C@]1(O[C@H]1C[C@H]1C4=C(CC[C@@]13C)C(=O)OC4)[C@@H]2O` [Triptolide], the “synergy score” value with MM.1R cells (setting [4]) is reported as 2.12.
For `COc1ccc(Cc2nn3c([C@@H](CCCc4ccccc4)[C@@H](C)O)nc(C)c3c(=O)[nH]2)cc1OC` [BAY 60-7550, 2-(3,4-dimethoxybenzyl)-7-[(1R)-1-[(1R)-1-hydroxyethyl]-4-phenylbutyl]-5-methylimidazo[5,1-f][1,2,4]triazin-4(3H)-one], the “Synergy score … RPMI-8226” value in the experiment on RPMI-8226 cells (setting [5]) worked out at 1.37. Besides, in the experiment with MM.1S cells [1] (setting [6]), the inhibition at 0.437 µM was found to be 2.2%, the inhibition at 1.31 µM came to 1.7%, the inhibition at 3.93 µM stood at 3% and the inhibition at 35.4 µM was found to be 44%. The “Synergy score with dexamethasone, MM.1S” value in the experiment on MM.1S cells [1] (72 h) amounted to 1.44. In addition, the “Synergy score with dexamethasone, H929” value in the experiment on H929 cells is 0.822.
On to `CCCCOc1ccc(CC(=O)NO)cc1` [Bufexamac], for which the synergy score in the experiment on MM.1R cells (setting [7]) was found to be 1.532; with MM.1R cells (setting [4]), 3.173; with RPMI-8226 cells (in combination with ADAC), 1.399; with RPMI-8226 cells (in combination with HE-NECA), 0.3833; in the experiment with MM.1S cells [1] (in combination with ADAC), 1.479; in the experiment with MM.1S cells [1] (in combination with HE-NECA), 3.476. The synergy score in the experiment on H929 cells (in combination with ADAC) was found to be 1.12; in the experiment with H929 cells (in combination with HE-NECA) it was 3.17.
Turning to `C#C[C@]1(O)CC[C@H]2[C@@H]3CCC4=CC(=O)CCC4=C3C=C[C@@]21CC` [Gestrinone], the “synergy score” value in the experiment with MM.1R cells worked out at 1.19.
